Measurements published in patent US12344649B2, “Modulators of parathyroid hormone receptor (PTHR1)” (Flagship Pioneering Innovations VI, LLC, priority 2019, dated 2025).
Where “and” joins values, the source holds several entries; their conditions need not be identical. Identical values can stand only once. Where no end group is shown, it is not given here.

Experiments:
Type in all cases: cell-based
PTHR1 [1] = target: T1, PTHR1 (Homo sapiens, UniProt Q03431); experiment: cAMP accumulation assay (HTRF) in CHO-K1/Ga15/PTHR1 cells; parameters: host or cells: CHO-K1 (recombinant line CHO-K1/Ga15/PTHR1); conditions: for Emax: CHO-K1, cAMP assay, fitted dose-response maximum; for cAMP accumulation activity compared to control peptide: FIG. 3, PTH 1-34 positive control; for cAMP: relative to PTH [1-34], CHO-K1/Ga15/PTHR1 cells
T1 sequence (Q03431 27-593): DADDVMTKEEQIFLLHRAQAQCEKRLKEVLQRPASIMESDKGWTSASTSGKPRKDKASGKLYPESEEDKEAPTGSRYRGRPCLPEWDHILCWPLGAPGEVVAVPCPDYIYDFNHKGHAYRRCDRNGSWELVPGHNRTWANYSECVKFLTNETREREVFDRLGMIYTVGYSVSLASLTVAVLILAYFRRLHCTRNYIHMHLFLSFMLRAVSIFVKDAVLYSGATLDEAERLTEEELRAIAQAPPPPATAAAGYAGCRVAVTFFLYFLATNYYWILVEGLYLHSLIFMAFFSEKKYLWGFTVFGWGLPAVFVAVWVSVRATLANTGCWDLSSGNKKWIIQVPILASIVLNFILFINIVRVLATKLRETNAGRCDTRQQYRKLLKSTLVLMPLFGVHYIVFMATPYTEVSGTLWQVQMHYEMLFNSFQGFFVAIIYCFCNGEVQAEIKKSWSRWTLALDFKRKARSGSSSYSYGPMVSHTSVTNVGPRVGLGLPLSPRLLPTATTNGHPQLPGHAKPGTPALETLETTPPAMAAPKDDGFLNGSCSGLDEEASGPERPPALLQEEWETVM
Procedure: Cell suspension (5 μL) was seeded in 384-well plates at a density of 3,000 cells/well. Cells were treated with test samples (5 μL) or agonist (PTH 1-34) for 30 minutes at room temperature. cAMP-d2 working solution (5 μL) and anti-cAMP-Cryptate working solution (5 μL) were added to cells and incubated for 60 minutes at room temperature. The signal of the assay plate was read with PheraStar (BMG LABTECH, NC), an HTRF compatible reader.

PTHR1 [2] = target: T1, PTHR1; experiment: β-arrestin2 recruitment BRET assay in transfected HEK293T cells; parameters: Flag (N); Life Technologies Corporation, CA (arrestin cDNA); host or cells: HEK293T (CRL-3216, ATCC); conditions: for β-arrestin2 assay activity compared to control peptide: FIG. 2, PTH 1-34 positive control; for β2-arrestin: relative to PTH [1-34], HEK293T cells, BRET; for −log10Slope: fitted curve slope; for −log10Slope / EC50: replicate plates
Procedure: (§1) 18-24 hours post transfection, the Luciferase substrate Coelenterazine (NanoLight Technologies, AZ) was added to cells, a baseline BRET measurement was taken after 5 minutes incubation, and then serial dilutions of peptides, diluted in PBS (with 0.5 mM MgCl2+0.1% BSA FAF), were added to cells, and BRET signal was measured every 2 minutes for 30 minutes on Hybrid Multi-Mode Reader (Synergy Neo2, BioTek, VT). Seventy-five peptides were tested in the β-arrestin recruitment assay.

PTHR1 [3] = target: T1, PTHR1; experiment: β-arrestin1 recruitment BRET assay in transfected HEK293T cells; parameters: Flag (N); Life Technologies Corporation, CA (arrestin cDNA); host or cells: HEK293T (CRL-3216, ATCC); conditions: for −log10Slope: fitted curve slope; for −log10Slope / EC50: replicate plates
Procedure: as §1

[4] = cAMP accumulation, fitted curve slope, replicate plates
[5] = cAMP accumulation, replicate plates, read-out: −log10EC50 (converted)
[6] = β-arrestin2 recruitment, read-out: −log10EC50 (converted)
[7] = β-arrestin1 recruitment, read-out: −log10EC50 (converted)
[8] = cAMP assay, fitted dose-response curve, read-out: −log10EC50 (converted)
[9] = cAMP assay, fitted dose-response slope

Compound | cAMP accumulation activity compared to control peptide (PTHR1 [1]) | cAMP (PTHR1 [1]) | −log10Slope (PTHR1 [1]; [4]) | EC50 (PTHR1 [1]; [5]) | further results
CC[C@H](C)[C@H](NC(=O)[C@H](CCC(=O)O)NC(=O)[C@H](CO)NC(=O)[C@@H](NC(=O)[C@@H](N)CO)C(C)C)C(=O)N[C@@H](CCC(N)=O)C(=O)N[C@@H](CC(C)C)C(=O)N[C@@H](CCSC)C(=O)N[C@@H](Cc1cnc[nH]1)C(=O)N[C@@H](CC(N)=O)C(=O)N[C@@H](CC(C)C)C(=O)NCC(=O)N[C@@H](CCCCN)C(=O)N[C@@H](Cc1cnc[nH]1)C(=O)N[C@@H](CC(C)C)C(=O)N[C@@H](CC(N)=O)C(=O)N[C@@H](CO)C(=O)N[C@@H](CCSC)C(=O)N[C@@H](CCC(=O)O)C(=O)N[C@@H](CCCN=C(N)N)C(=O)N[C@H](C(=O)N[C@@H](CCC(=O)O)C(=O)N[C@@H](Cc1c[nH]c2ccccc12)C(=O)N[C@@H](CC(C)C)C(=O)N[C@@H](CCCN=C(N)N)C(=O)N[C@@H](CCCCN)C(=O)N[C@@H](CCCCN)C(=O)N[C@@H](CC(C)C)C(=O)N[C@@H](CCC(N)=O)C(=O)N[C@@H](CC(=O)O)C(=O)N[C@H](C(=O)N[C@@H](Cc1cnc[nH]1)C(=O)N[C@@H](CC(N)=O)C(=O)N[C@@H](Cc1ccccc1)C(=O)O)C(C)C)C(C)C [Teriparatide, reference compound] | increased activity as compared to the control peptide | ++ | – | – | Emax (PTHR1 [1]): 100%; −log10Slope (PTHR1 [1]; cAMP accumulation, fitted curve slope, replicate plates, listed as R1-101): −4.492 and −4.864 and −4.046; β-arrestin2 assay activity compared to control peptide (PTHR1 [2]): increased activity as compared to control; β2-arrestin (PTHR1 [2]): ++; −log10Slope (PTHR1 [2]; β-arrestin2 recruitment, listed as R1-101): −3.44 and −3.409 and −3.396; β1-arrestin (PTHR1 [3]; relative to PTH [1-34], HEK293T cells, BRET): +; −log10Slope (PTHR1 [3]; β-arrestin1 recruitment, listed as R1-101): −2.906 and −3.664 and −1.356
AVAEIQLMHQRAKWAIQEIGIKITRELLERYL [Peptide R2-42] | – | – | 13.11 | 0.285 µM | β-arrestin2 assay activity compared to control peptide (PTHR1 [2]): activity similar to the control peptide; β2-arrestin (PTHR1 [2]): +; −log10Slope (PTHR1 [2]; β-arrestin2 recruitment): −2.7849 and −2.122 and −2.912; EC50 (PTHR1 [2]; [6]): 0.00807 µM and 0.00422 µM and 0.0237 µM; −log10Slope (PTHR1 [3]; β-arrestin1 recruitment): −1.503 and −1.149 and −5.574
AVAEIQLMHQRAKWDLLIELVKLLHELLKEYI [Peptide R2-40] | increased activity as compared to the control peptide | ++ | −2.205 | 5.83e-06 µM | −log10Slope (PTHR1 [2]; β-arrestin2 recruitment): −3.733 and −2.83; EC50 (PTHR1 [2]; [6]): 0.856 µM and 1.41 µM; −log10Slope (PTHR1 [3]; β-arrestin1 recruitment): −4.125 and −1.577; EC50 (PTHR1 [3]; [7]): 0.571 µM and 3.6 µM
AVAEIQLMHQRAKWDVLIELAKLLAELLRRYH [Peptide R2-47] | increased activity as compared to the control peptide | ++ | 12 | – | EC50 (PTHR1 [1]): 0.000591 µM; −log10Slope (PTHR1 [2]; β-arrestin2 recruitment): −2.078 and −1.716 and −1.634; EC50 (PTHR1 [2]; −log10EC50, β-arrestin2 recruitment): 1.37 µM and 1.71 µM and 3.48 µM; −log10Slope (PTHR1 [3]; β-arrestin1 recruitment): −1.834 and −2.2235 and −1.644; EC50 (PTHR1 [3]; −log10EC50, β-arrestin1 recruitment): 1.43 µM and 0.651 µM and 3.64 µM
AVAEIQLMHQRAKWEIQEIGIKITLDLLQTLK [Peptide R2-41] | increased activity as compared to the control peptide | ++ | −2.911 | 5.57e-05 µM | −log10Slope (PTHR1 [2]; β-arrestin2 recruitment): −4.333; EC50 (PTHR1 [2]; [6]): 0.94 µM; −log10Slope (PTHR1 [3]; β-arrestin1 recruitment): −8.214; EC50 (PTHR1 [3]; [7]): 0.00383 µM
AVAEIQLMHQRAKWEIQEIGIKITLELLKEYI [Peptide R2-37] | increased activity as compared to the control peptide | – | −5.899 | 0.000813 µM | −log10Slope (PTHR1 [2]; β-arrestin2 recruitment): −4.144 and −2.117 and −4.372; EC50 (PTHR1 [2]; [6]): 0.386 µM and 1.38 µM and 0.497 µM; −log10Slope (PTHR1 [3]; β-arrestin1 recruitment): −1.386 and −0.8678 and −5.353
AVAEIQLMHQRAKWELQEIGIKITLDLLEAYL [Peptide R2-39] | – | – | – | – | −log10Slope (PTHR1 [2]; β-arrestin2 recruitment): −5.314 and −3.58 and −2.2339; −log10Slope (PTHR1 [3]; β-arrestin1 recruitment): −0.2801 and −4.065 and −4.878; EC50 (PTHR1 [3]; [7]): 0.775 µM and 0.594 µM
AVAEIQLMHQRAKWKQELELEEKNKKILEDVY [Peptide R2-32] | – | – | −14.3219 | 0.312 µM | –
AVAEIQLMHQRAKWRAEYELREMLLRLLEEIF [Peptide R1-96] | activity similar to the control peptide | + | – | – | Emax (PTHR1 [1]): 99.7%; EC50 (PTHR1 [1]; [8]): 0.00986 µM; −log10Slope (PTHR1 [1]; [9]): −3.352
AVAEIQLMHQRAKWSILEELLKILTALLDEYI [Peptide R2-46] | – | – | – | – | −log10Slope (PTHR1 [2]; β-arrestin2 recruitment): −3.413 and −1.882 and −2.306; EC50 (PTHR1 [2]; [6]): 0.539 µM and 0.187 µM and 0.55 µM; −log10Slope (PTHR1 [3]; β-arrestin1 recruitment): −3.506 and −2.782 and −5.541; EC50 (PTHR1 [3]; [7]): 0.565 µM and 0.447 µM and 0.394 µM
AVATIQLMTDIAKIRAEYELREMLLRLLEEIF [Peptide R2-6] | – | – | −0.3341 | – | –
GIAVFTIMHLRIYLRAEYELREMLLRLLEEIF [Peptide R2-17] | – | – | −2.077 | 448 µM | –
GIAVITIMIDYAKLRAEYELREMLLRLLEEIF [Peptide R2-22] | increased activity as compared to the control peptide | ++ | 7.165 | – | EC50 (PTHR1 [1]): 7.09e-05 µM
GIAVLTILDLRAKLRAEYELREMLLRLLEEIF [Peptide R2-14] | increased activity as compared to the control peptide | ++ | 2.196 | – | EC50 (PTHR1 [1]): 5.21e-06 µM
GLAALTIGLLRAKLRAEYELREMLLRLLEEIF [Peptide R2-24] | increased activity as compared to the control peptide | ++ | 5.587 | – | EC50 (PTHR1 [1]): 4.24e-05 µM
GVAEIQLMHDIPVIRAEYELREMLLRLLEEIF [Peptide R2-3] | – | – | −8.5715 | 11.8 µM | –
GVAEIQLMVDLDIIRAEYELREMLLRLLEEIF [Peptide R2-12] | – | – | −2.726 | 137 µM | –
GVAELQLMHDLAKIKLELELKVKLLEILKDVY [Peptide R2-49] | – | – | – | – | Emax (PTHR1 [1]): 99.9%; EC50 (PTHR1 [1]; [8]): 1.62 µM; −log10Slope (PTHR1 [1]; [9]): −5.638
GVAELQLMHFRALLRAEYELREMLLRLLEEIF [Peptide R2-7] | – | – | −0.9597 | 26100 µM | –
GVALLQIVHDFAKIRAEYELREMLLRLLEEIF [Peptide R2-5] | – | – | −4.972 | – | –
GVAMLQILHDKAKVRAEYELREMLLRLLEEIF [Peptide R2-11] | – | – | −11.3552 | – | EC50 (PTHR1 [1]): 2.01 µM
GVSMLQIMHDLAVIRAEYELREMLLRLLEEIF [Peptide R2-4] | – | – | −13.5432 | 1.36 µM | –
GVVMLQFMHDVAKIRAEYELREMLLRLLEEIF [Peptide R2-9] | – | – | −0.02713 | – | –
GVYAIQAMHDLAKIRAEYELREMLLRLLEEIF [Peptide R2-10] | – | – | −8.781 | 32.5 µM | –
LILVEQLMDLRAYLRAEYELREMLLRLLEEIF [Peptide R2-16] | – | – | −8.301 | 19.6 µM | –
LILVKKIIDLRAYLRAEYELREMLLRLLEEIF [Peptide R2-21] | – | – | −8.121 | 21.2 µM | –
LMHNLGKHLNSMERVEWLRKKLQDVHNFVA [PTH 7-36 antago, reference compound] | – | – | – | – | −log10Slope (PTHR1 [2]; β-arrestin2 recruitment): −2.649; EC50 (PTHR1 [2]; [6]): 0.0469 µM; −log10Slope (PTHR1 [3]; β-arrestin1 recruitment): −1.192; EC50 (PTHR1 [3]; [7]): 0.105 µM
PIPVKDIMDLRAYLRAEYELREMLLRLLEEIF [Peptide R2-19] | – | – | −5.2427 | 20.5 µM | –
SIIGEQLMLLRALLRAEYELREMLLRLLEEIF [Peptide R2-18] | – | – | −1.186 | 5940 µM | –
VDFEIQLMQQRAQWIADYRIREFLDKLIAEIF [Peptide R1-94] | increased activity as compared to the control peptide | ++ | – | – | Emax (PTHR1 [1]): 90.8%; EC50 (PTHR1 [1]; [8]): 7.36e-05 µM; −log10Slope (PTHR1 [1]; [9]): −3.981
